Measured values published in patent US9901591B2, “Paeoniflorin preparations and uses thereof for fat reduction” (priority 2008, dated 2018).

Tests used:
Format in all cases: cell-based, mouse
intracellular cyclic AMP = experiment: Intracellular cyclic AMP by ELISA in 3T3-L1 adipocytes; conditions: PF, vs control
Protocol: 3T3-L1 adipocytes were cultured in medium containing […] PF as test group and medium only as control. Cells were lysed by adding 0.1 N HCL, and intracellular cyclic AMP was measured by ELISA.

[1] = test system: Hormone sensitive lipase (HSL); experiment: Semi-quantitative RT-PCR of HSL expression in 3T3-L1 adipocytes; conditions: 1 mol/L PF, from the third day after exposure
Protocol: 3T3-L1 adipocytes were cultured in medium containing […] PF as a test group and medium only as the control group. Total RNA was extracted and reverse transcribed to cDNA employing conventional methods known to those of skill in the art. Primers used for polymerase chain reaction (PCR) amplification of mouse HSL primers were selected based on published sequence (NM_010719) (expected PCR fragment: 409 bp): For semi-quantitative analysis, the amplification cycles were chosen within the linear range (HSL: 24 cycles with […] at 58° C., GAPDH: 21 cycles with […] at 58° C.).

[2] = test system: Adiponectin receptor 1 (Adipor1); experiment: Oligo GEArray microarray of obesity-related genes in 3T3-L1 adipocytes; conditions: for Ratio of expression signals of Adipor1 compared to control: 1 umol/L PF, control = 1
Protocol: (§1) 3T3-L1 adipocytes were cultured in medium containing 1 umol/L PF as test group and medium only as control. Total RNA was extracted and Oligo GEArray was tested using Superarray OMM-17. The GEArray includes 111 obesity-related genes that are directly involved in the regulation of energy intake and expenditure. The genes included orexigenic peptides, hormones, and receptors, anorectic peptides, hormones, receptors, and central and peripheral signaling molecules involved in energy expenditure. The increase changes or decrease changes of more than 1.5 fold are regarded meaningful according to the diagnosis discipline, as described in the insert literature of a metabolic disease/obesity gene panel product purchased from Superarray Bioscience Corporation. (Frederick, Md.). […] In the graphs, the data above the upper line and the data below the lower line show a significant change of gene expression.

Adra2b = experiment: as above; conditions: for Ratio of expression signals of Adra2b compared to control: 3T3-L1 adipocytes, 1 umol/L PF, control = 1
Protocol: as §1

Adrb2 = experiment: as above; conditions: for Ratio of expression signals of Adrb2 compared to control: 1 umol/L PF, control = 1
Protocol: as §1

Adrb3 = experiment: as above; conditions: for Ratio of expression signals of Adrb3 compared to control: 1 umol/L PF, control = 1
Protocol: as §1

[3] = test system: Peroxisome proliferators activated receptor gamma (Pparg); experiment: as above; conditions: for Ratio of expression signals of Pparg compared to control: 1 umol/L PF, control = 1
Protocol: as §1

[4] = test system: β1-adrenergic receptor (Adrb1); experiment: as above; conditions: for Ratio of expression signals of Adrb1 compared to control: 3T3-L1 adipocytes, 1 umol/L PF, control = 1
Protocol: as §1

Carboxypeptidase E (Cpe) = experiment: as above; conditions: for Ratio of expression signals of Cpe compared to control: 1 umol/L PF, control = 1
Protocol: 3T3-L1 adipocytes were cultured in medium containing 1 umol/L PF as test group and medium only as control. Total RNA was extracted and Oligo GEArray was tested using Superarray OMM-17. The GEArray includes 111 obesity-related genes that are directly involved in the regulation of energy intake and expenditure. The genes included orexigenic peptides, hormones, and receptors, anorectic peptides, hormones, receptors, and central and peripheral signaling molecules involved in energy expenditure. The increase changes or decrease changes of more than 1.5 fold are regarded meaningful according to the diagnosis discipline, as described in the insert literature of a metabolic disease/obesity gene panel product purchased from Superarray Bioscience Corporation. (Frederick, Md.).
In the graphs, the data above the upper line and the data below the lower line show a significant change of gene expression.

## C[C@@]12C[C@@]3(O)O[C@@H](O1)[C@]1(COC(=O)c4ccccc4)[C@H]3C[C@@]12O[C@@H]1O[C@H](CO)[C@@H](O)[C@H](O)[C@H]1O [PF, paeoniflorin]
Intracellular cyclic AMP; first day / 24 hours
  intracellular cAMP: significantly increased
Intracellular cyclic AMP; third day / 72 hours
  intracellular cAMP: significantly increased
[1]
  expression of HSL: increased the expression of HSL
[2]; 3 days
  Ratio of expression signals of Adipor1 compared to control: 0.68
[2]; 6 days
  Ratio of expression signals of Adipor1 compared to control: 1.21
[2]; 7 days
  Ratio of expression signals of Adipor1 compared to control: 1.86
[2]; day 7 of exposure to PF
  increase of Adipor1 expression: 1.86 fold
Adra2b; 3T3-L1 adipocytes exposed to PF, whole study
  effect on expression of Adra2b: no effect on Adra2b
Adra2b; 3 days
  Ratio of expression signals of Adra2b compared to control: 0.92
Adra2b; 6 days
  Ratio of expression signals of Adra2b compared to control: 1.44
Adra2b; 7 days
  Ratio of expression signals of Adra2b compared to control: 1.27
Adrb2; 3 days
  Ratio of expression signals of Adrb2 compared to control: 0.74
Adrb2; 6 days
  Ratio of expression signals of Adrb2 compared to control: 1.96
Adrb2; 7 days
  Ratio of expression signals of Adrb2 compared to control: 7.40
Adrb2; 7 days post exposure to PF
  increase of Adrb2 expression: 7.4 fold
Adrb3; 3 days
  Ratio of expression signals of Adrb3 compared to control: 1.56
Adrb3; 6 days
  Ratio of expression signals of Adrb3 compared to control: 3.18
Adrb3; 7 days
  Ratio of expression signals of Adrb3 compared to control: 5.65
Adrb3; 7 days post exposure to PF
  increase of Adrb3 expression: 5.65 fold
[3]; 3 days
  Ratio of expression signals of Pparg compared to control: 0.91
[3]; 6 days
  Ratio of expression signals of Pparg compared to control: 1.09
[3]; 7 days
  Ratio of expression signals of Pparg compared to control: 0.64
[3]; day 7 of exposure to PF
  reduction of the level of expression of Pparg: 1.54 fold
[4]; 3T3-L1 adipocytes exposed to PF
  effect on expression of Adrb1: significant increase
[4]; 3 days
  Ratio of expression signals of Adrb1 compared to control: 3.39
[4]; 6 days
  Ratio of expression signals of Adrb1 compared to control: 0.8
[4]; 7 days
  Ratio of expression signals of Adrb1 compared to control: 0.58
Carboxypeptidase E (Cpe); 3 days
  Ratio of expression signals of Cpe compared to control: 0.79
Carboxypeptidase E (Cpe); 6 days
  Ratio of expression signals of Cpe compared to control: 1.04
Carboxypeptidase E (Cpe); 7 days
  Ratio of expression signals of Cpe compared to control: 2.67
Carboxypeptidase E (Cpe); day 7 of exposure to PF
  increase of Cpe expression compared to the control: 2.67 fold
